According to patent US12359242B2, “Chemical platform assisted proximity capture (CAP-C)” (The University of Chicago, priority 2018, dated 2025):

System: mouse embryonic stem cells (mESCs)
Experiment: CAP-C with G5 dendrimers on mESC samples treated with transcription elongation inhibitors
Assay type: cell-based
Conditions: for peaks originally called in the control sample that remained: second time point; for contacts in 10 kb resolution contact matrix: mESC; for contact probability between distance-scaled bins 2-7, loop and non-loop domains: versus G5-control
Source text: The inventors then diffuse dendrimers into the cell nucleus and expose these cells to UV irradiation (FIG. 1A). The formaldehyde fixing is then reversed, and DNA-bound proteins are removed with protease to expose all DNA motifs, the dendrimer-DNA complexes are subsequently purified with ethanol precipitation. The purified dendrimer-DNA complexes are then subjected to MboI restriction digestion and end-filling with biotin-bearing DNA, followed by ligation under ultra-diluted solution, biotin capture and high-throughput sequencing (FIG. 1A). Dendrimers with a defined size were used for each CAP-C experiment.
Inhibition of transcription reduces supercoiling and leads to global loss of chromatin contacts. Chromatin topology highly associates with supercoiling, and supercoiling domains have been proposed and identified. […] Motivated by a relationship between transcription-induced supercoiling and domain organization, the inventors next examined whether transcription inhibition affects chromatin architecture. The inventors explored two different transcription elongation inhibitors, flavopiridol and α-amanitin. Reduced levels and rates of supercoiling have been observed upon transcription inhibition. Thus, the inventors performed time-series CAP-C experiments using G5 dendrimers to crosslink mESC samples treated with 2 μM flavopiridol for 1 h and 6 h, as well as samples treated with 4 μg/ml of α-amanitin for 6 h and 12 h, respectively.
The signals of these peaks were, however, weakly attenuated (FIG. 5A). Because these inhibitor-treated and G5-control samples are low-resolution contact maps, the inventors applied Aggregate Peak Analysis (APA) of the peaks called in the deep sequenced CAP-C dataset. […] The inventors plotted the mean contact maps of 103-263 loop-domains (median length: 170 Kb) shared between the control and inhibitor-treated samples by rescaling them into 10 bins (i.e. contact domains in G5-control overlapping loops that are shared between control and inhibitor-treated samples). […] The inventors also quantified these maps into a contact probability vs distance-scaled bins line-plot for all loop domains, non-loop domains and randomly permutated domains. […] Increasing contact frequencies identified at corners of inhibitor-treated loop-domains (bins 8-10) indicate the presence as well as attenuation of peaks from G5-control (FIG. 5E). This is in stark contrast to the absence of such an increase in non-loop domains and randomly permutated domain boundaries.

SMILES | peaks originally called in the control sample that remained (6 hr treatment) | loops (APA and meta-analysis) (flavopiridol-treated samples) | contacts in 10 kb resolution contact matrix (2 μM flavopiridol for 1 h and 6 h) | contacts over 1 Mb (relative contact frequency vs distance) (transcription inhibitor-treated vs control) | contact probability between distance-scaled bins 2-7, loop and non-loop domains | APA scores versus control (6 h and 12 h treated samples) | peaks originally called in the control sample that remained (12 hr treatment) | contacts in 10 kb resolution contact matrix (4 μg/ml α-amanitin for 6 h and 12 h)
CN1CC[C@H](c2c(O)cc(O)c3c(=O)cc(-c4ccccc4Cl)oc23)[C@H](O)C1 [flavopiridol] | more than half | attenuated but preserved | profound decrease in contacts | slightly strong depletion | same trends | – | – | –
CC[C@H](C)[C@@H]1NC(=O)CNC(=O)[C@@H]2Cc3c([nH]c4cc(O)ccc34)[S+]([O-])C[C@@H](NC(=O)CNC1=O)C(=O)N[C@@H](CC(N)=O)C(=O)N1C[C@H](O)C[C@H]1C(=O)N[C@@H]([C@@H](C)[C@@H](O)CO)C(=O)N2 (stereo in doubt) [α-amanitin] | – | – | – | – | general decrease | greater | more than half | profound decrease in contacts
